Structures can show the parent of a compound that is named as a salt.
How the values were obtained:
[1] = target: T1, human factor XIa (Homo sapiens, UniProt P03951); experiment: Measurement of FXIa inhibition (fluorogenic peptide substrate Boc-Glu(OBzl)-Ala-Arg-AMC); type: biochemical; details: factor XIa from Kordia 0.45 nM, 15 min pre-incubation, 30 min at 22° C., fluorescence
T1 construct: purchased Kordia
Method: The factor XIa inhibition of the substances according to the invention is determined using a biochemical test system which utilizes the reaction of a peptidic factor XIa substrate to determine the enzymatic activity of human factor XIa. Here, factor XIa cleaves from the peptic factor XIa substrate the C-terminal aminomethylcoumarin (AMC), the fluorescence of which is measured. The determinations are carried out in microtitre plates.
Test substances are dissolved in dimethyl sulphoxide and serially diluted in dimethyl sulphoxide (3000 μM to 0.0078 μM; resulting final concentrations in the test: 50 μM to 0.00013 μM). In each case 1 μl of the diluted substance solutions is placed into the wells of white microtitre plates from Greiner (384 wells). Subsequently, the following are added successively: 20 μl of assay buffer (50 mmol/l Tris buffer pH 7.4; 100 mmol/l sodium chloride; 5 mmol/l calcium chloride; 0.1% bovine serum albumin) and 20 μl of factor XIa from Kordia (0.45 nM in assay buffer). After 15 min of incubation, the enzyme reaction is started by addition of 20 μl of the factor XIa substrate Boc-Glu(OBzl)-Ala-Arg-AMC dissolved in assay buffer (10 μM in assay buffer) from Bachem, the mixture is incubated at room temperature (22° C.) for 30 min and fluorescence is then measured (excitation: 360 nm, emission: 460 nm). The measured emissions of the test batches with test substance are compared to those of control batches without test substance (only dimethyl sulphoxide instead of test substance in dimethyl sulphoxide), and IC50 values are calculated from the concentration/activity relationships.

[2] = tested on: human and animal plasma; experiment: Determination of anticoagulatory activity: activated partial thromboplastin time (aPTT) in plasma; details: concentration of test substance which brings about a 1.5-fold extension of the aPTT; plasma in vitro, C.K. Prest kit
Method: The anticoagulatory activity of the test substances is determined in vitro in human and animal plasma (for example mouse, rat, rabbit, pig and dog plasma). To this end, blood is drawn off in a mixing ratio of sodium citrate/blood of 1:9 using a 0.11 molar sodium citrate solution as receiver. Immediately after the blood has been drawn off, it is mixed thoroughly and centrifuged at about 4000 g for 15 minutes. The supernatant is pipetted off.
The activated partial thromboplastin time (aPTT) is determined in the presence of varying concentrations of test substance or the corresponding solvent using a commercial test kit (C.K. Prest from Diagnostica Stago). The test compounds are incubated with the plasma and the PTT reagent (cephalin, kaolin) at 37° C. for 3 minutes. Coagulation is then started by addition of a 25 mM aqueous calcium chloride solution, and the time when coagulation occurs is determined. The concentration of test substance which brings about a 1.5-fold extension of the aPTT is determined.

T1 sequence (P03951 388-625 limits assumed): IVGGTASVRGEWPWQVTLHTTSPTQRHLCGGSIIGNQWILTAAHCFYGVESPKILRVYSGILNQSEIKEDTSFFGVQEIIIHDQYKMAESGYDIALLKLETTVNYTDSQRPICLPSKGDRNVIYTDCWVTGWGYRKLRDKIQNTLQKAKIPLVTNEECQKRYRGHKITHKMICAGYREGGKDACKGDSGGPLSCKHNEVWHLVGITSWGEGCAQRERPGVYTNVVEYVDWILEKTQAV
T1 sequence (P03951 19-387 partner limits assumed): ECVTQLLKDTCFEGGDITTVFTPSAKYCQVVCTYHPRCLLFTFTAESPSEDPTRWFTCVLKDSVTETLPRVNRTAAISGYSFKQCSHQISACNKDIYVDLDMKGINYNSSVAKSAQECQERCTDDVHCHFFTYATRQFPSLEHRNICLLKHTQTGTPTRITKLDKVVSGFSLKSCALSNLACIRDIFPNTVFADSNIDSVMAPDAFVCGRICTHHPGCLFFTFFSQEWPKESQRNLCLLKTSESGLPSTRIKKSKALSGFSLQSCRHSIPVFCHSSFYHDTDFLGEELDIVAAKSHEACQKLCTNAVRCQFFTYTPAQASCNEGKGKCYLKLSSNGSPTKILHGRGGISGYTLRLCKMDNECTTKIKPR

Structure (SMILES)	IC50 [1] [nM]	aPTT [2] [µmol/L]
NC[C@H]1CC[C@H](C(=O)N[C@@H](Cc2cccc(-c3cnc(NC4CC4)nc3)c2)C(=O)Nc2ccc(-c3nnn[nH]3)cc2)CC1 [Example 82, N-alpha-{[trans-4-(Aminomethyl)cyclohexyl]carbonyl}-3-[2-(cyclopropylamino)pyrimidin-5-yl]-N-[4-(1H-tetrazol-5-yl)phenyl]-L-phenylalaninamide hydrochloride]	3.4	0.14
NC[C@H]1CC[C@H](C(=O)N[C@@H](Cc2cccc(-c3cc(C(N)=O)ccc3Cl)c2)C(=O)Nc2ccc(-c3nnn[nH]3)cc2)CC1 [Example 38, 3′-[(2S)-2-({[trans-4-(Aminomethyl)cyclohexyl]carbonyl}amino)-3-oxo-3-{[4-(1H-tetrazol-5-yl)phenyl]amino}propyl]-6-chlorobiphenyl-3-carboxamide hydrochloride]	4.8	0.2
Cc1ccc(C(=O)NC2CCNCC2)cc1-c1cccc(C[C@H](NC(=O)[C@H]2CC[C@H](CN)CC2)C(=O)Nc2ccc(-c3nnn[nH]3)cc2)c1 [Example 14, 3′-[(2S)-2-({[trans-4-(Aminomethyl)cyclohexyl]carbonyl}amino)-3-oxo-3-{[4-(1H-tetrazol-5-yl)phenyl]amino}propyl]-6-methyl-N-(piperidin-4-yl)biphenyl-3-carboxamide hydrochloride]	4.8	0.15
Cc1cc(N)ccc1-c1cccc(C[C@H](NC(=O)[C@H]2CC[C@H](CN)CC2)C(=O)Nc2ccc(-c3nnn[nH]3)cc2)c1 [Example 97, trans-4-(Aminomethyl)-N-[(2S)-3-(4′-amino-2′-methylbiphenyl-3-yl)-1-oxo-1-{[4-(1H-tetrazol-5-yl)phenyl]amino}propan-2-yl]cyclohexanecarboxamide hydrochloride]	2.1	0.12
CN(C)C(=O)c1cccc(-c2cccc(C[C@H](NC(=O)[C@H]3CC[C@H](CN)CC3)C(=O)Nc3ccc(-c4nnn[nH]4)cc3)c2)c1 [Example 43, 3′-[(2S)-2-({[trans-4-(Aminomethyl)cyclohexyl]carbonyl}amino)-3-oxo-3-{[4-(1H-tetrazol-5-yl)phenyl]amino}propyl]-N,N-dimethylbiphenyl-3-carboxamide hydrochloride]	5.2	0.26
NC[C@H]1CC[C@H](C(=O)N[C@@H](Cc2cccc(-c3cccc(S(=O)(=O)NC4CC4)c3)c2)C(=O)Nc2ccc(-c3nnn[nH]3)cc2)CC1 [Example 6, trans-4-(Aminomethyl)-N-[(2S)-3-[3′-(cyclopropylsulphamoyl)biphenyl-3-yl]-1-oxo-1-{[4-(1H-tetrazol-5-yl)phenyl]amino}propan-2-yl]cyclohexanecarboxamide hydrochloride]	1.9	0.27
NC[C@H]1CC[C@H](C(=O)N[C@@H](Cc2cccc(-c3ccc(C(=O)N4CCN(CCO)CC4)cc3)c2)C(=O)Nc2ccc(-c3nnn[nH]3)cc2)CC1 [Example 48, trans-4-(Aminomethyl)-N-[(2S)-3-(4′-{[4-(2-hydroxyethyl)piperazin-1-yl]carbonyl}biphenyl-3-yl)-1-oxo-1-{[4-(1H-tetrazol-5-yl)phenyl]amino}propan-2-yl]cyclohexanecarboxamide hydrochloride]	6.9	0.44
NC[C@H]1CC[C@H](C(=O)N[C@@H](Cc2cccc(-c3cccc(C(=O)NCCN4CCOCC4)c3)c2)C(=O)Nc2ccc(-c3nnn[nH]3)cc2)CC1 [Example 29, 3′-[(2S)-2-({[trans-4-(Aminomethyl)cyclohexyl]carbonyl}amino)-3-oxo-3-{[4-(1H-tetrazol-5-yl)phenyl]amino}propyl]-N-[2-(morpholin-4-yl)ethyl]biphenyl-3-carboxamide hydrochloride]	5.5	0.37
NC[C@H]1CC[C@H](C(=O)N[C@@H](Cc2cccc(-c3cnccc3Cl)c2)C(=O)Nc2ccc(-c3noc(=O)[nH]3)cc2)CC1 [Example 107, N-alpha-{[trans-4-(Aminomethyl)cyclohexyl]carbonyl}-3-(4-chloropyridin-3-yl)-N-[4-(5-oxo-4,5-dihydro-1,2,4-oxadiazol-3-yl)phenyl]-L-phenylalaninamide hydrochloride]	6.2	0.7
NC[C@H]1CC[C@H](C(=O)N[C@@H](Cc2cccc(-c3ccc(C(=O)NCCN4CCCC4)cc3)c2)C(=O)Nc2ccc(-c3nnn[nH]3)cc2)CC1 [Example 41, 3′-[(2S)-2-({[trans-4-(Aminomethyl)cyclohexyl]carbonyl}amino)-3-oxo-3-{[4-(1H-tetrazol-5-yl)phenyl]amino}propyl]-N-[2-(pyrrolidin-1-yl)ethyl]biphenyl-4-carboxamide hydrochloride]	8.4	0.32
CNC(=O)c1ccc(F)c(-c2cccc(C[C@H](NC(=O)[C@H]3CC[C@H](CN)CC3)C(=O)Nc3ccc(-c4nnn[nH]4)cc3)c2)c1 [Example 62, 3′-[(2S)-2-({[trans-4-(Aminomethyl)cyclohexyl]carbonyl}amino)-3-oxo-3-{[4-(1H-tetrazol-5-yl)phenyl]amino}propyl]-6-fluoro-N-methylbiphenyl-3-carboxamide hydrochloride]	6.2	0.48
Cc1ccc(S(=O)(=O)NCc2ccccc2)cc1-c1cccc(C[C@H](NC(=O)[C@H]2CC[C@H](CN)CC2)C(=O)Nc2ccc3[nH]c(=O)[nH]c3c2)c1 [Example 12, trans-4-(Aminomethyl)-N-{(2S)-3-[5′-(benzylsulphamoyl)-2′-methylbiphenyl-3-yl]-1-oxo-1-[(2-oxo-2,3-dihydro-1H-benzimidazol-5-yl)amino]propan-2-yl}cyclohexanecarboxamide hydrochloride]	3.2	0.3
COc1ccc(C[C@H](NC(=O)[C@H]2CC[C@H](CN)CC2)C(=O)Nc2ccc(-c3nn[nH]n3)cc2)cc1-c1ccc(C(=O)N[C@@H]2CCNC2)cc1C [Example 57, 5′-[(2S)-2-({[trans-4-(Aminomethyl)cyclohexyl]carbonyl}amino)-3-oxo-3-{[4-(2H-tetrazol-5-yl)phenyl]amino}propyl]-2′-methoxy-2-methyl-N-[(3R)-pyrrolidin-3-yl]biphenyl-4-carboxamide hydrochloride]	17	0.3
Cc1ccc(S(=O)(=O)NCc2ccccc2)cc1-c1cccc(C[C@H](NC(=O)[C@H]2CC[C@H](CN)CC2)C(=O)Nc2ccc(-c3noc(=O)[nH]3)cc2)c1 [Example 60, trans-4-(Aminomethyl)-N-[(2S)-3-[5′-(benzylsulphamoyl)-2′-methylbiphenyl-3-yl]-1-oxo-1-{[4-(5-oxo-4,5-dihydro-1,2,4-oxadiazol-3-yl)phenyl]amino}propan-2-yl]cyclohexanecarboxamide hydrochloride]	1.4	0.21
COCc1nnc(-c2ccc(NC(=O)[C@H](Cc3cccc(-c4cccc5ncccc45)c3)NC(=O)[C@H]3CC[C@H](CN)CC3)cc2)[nH]1 [Example 105, N-alpha-{[trans-4-(Aminomethyl)cyclohexyl]carbonyl}-3-quinolin-5-yl-N-{4-[5-(methoxymethyl)-4H-1,2,4-triazol-3-yl]phenyl}-L-phenylalaninamide hydrochloride]	13	0.14
